The values that follow come from patent publication US10987359B2, “Oxadiazepinone derivatives and methods of treating hepatitis B infections” (priority 2016, dated 2021).

By pEC50 is commonly meant the negative decadic logarithm of the EC50, by convention in mol/L.

This assay deals with HBV. Kind of assay: HBV replication inhibition assay (BDNA assay) in HepG2.2.15 cells. In kind it is cell-based. The note with it: Hepatitis B virus. In outline: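 Supernatant encapsidated HBV DNA was measured by bDNA after DNase digestion and proteinase K release. Stably HBV-integrated HepG2.2.15 cells had two 3-day compound exposures (0.5% DMSO). Signals were background-subtracted and normalized to DMSO wells, and EC50 was obtained by four-parameter fit.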

Setting [1] is: HepG2.2.15, HBV replication assay (BDNA assay), HepG2.2.15 cells, read-out: DNA EC50.

pEC50: −log10 of the molar value. Where two headings read alike, the source gives them in different places.

Consider `CC(=O)NCC1Cn2nc3c(c2C(=O)N(C)O1)CN(C(=O)Nc1ccc(F)c(Cl)c1)CC3` (stereo not shown) [Compound 162, -(acetamidomethyl)-N-(3-chloro-4-fluoro-phenyl)-2-methyl-1-oxo-5,8,9,11-tetrahydro-4H-pyrido[2,3]pyrazolo[2,4-d][1,2,5]oxadiazepine-10-carboxamide], for which the pEC50 under setting [1] is 7.00 to 9.00.
For the compound `CN1OC(CNC(=O)C(F)(F)F)Cn2nc3c(c2C1=O)CN(C(=O)Nc1ccc(F)c(Cl)c1)CC3` (stereo not shown) [Compound 163, N-(3-chloro-4-fluorophenyl)-2-methyl-1-oxo-4-((2,2,2-trifluoroacetamido)methyl)-1,4,5,8,9,11-hexahydropyrido[4′,3′:3,4]pyrazolo[5,1-d][1,2,5]oxadiazepine-10(2H)-carboxamide], under “HepG2.2.15, read-out: DNA EC50”, the pEC50 is 7.00 to 9.00.
In the case of `CN1OC(CNS(=O)(=O)C(F)(F)F)Cn2nc3c(c2C1=O)CN(C(=O)Nc1ccc(F)c(Cl)c1)CC3` (stereo not shown) [Compound 164, N-(3-chloro-4-fluorophenyl)-2-methyl-1-oxo-4-(((trifluoromethyl)sulfonamido)methyl)-1,4,5,8,9,11-hexahydropyrido[4′,3′:3,4]pyrazolo[5,1-d][1,2,5]oxadiazepine-10(2H)-carboxamide], under setting [1], the pEC50 was 6.30 to 7.00.
The same measure, in the same setting: the result for `CN1OC(CNS(C)(=O)=O)Cn2nc3c(c2C1=O)CN(C(=O)Nc1ccc(F)c(Cl)c1)CC3` (stereo not shown) [Compound 165, N-(3-chloro-4-fluorophenyl)-2-methyl-4-(methylsulfonamidomethyl)-1-oxo-1,4,5,8,9,11-hexahydropyrido[4′,3′:3,4]pyrazolo[5,1-d][1,2,5]oxadiazepine-10(2H)-carboxamide] reads 7.00 to 9.00; that for `COC(=O)NCC1Cn2nc3c(c2C(=O)N(C)O1)CN(C(=O)Nc1ccc(F)c(Cl)c1)CC3` (stereo not shown) [Compound 166, methyl((10-((3-chloro-4-fluorophenyl)carbamoyl)-2-methyl-1-oxo-1,2,4,5,8,9,10,11-octahydropyrido[4′,3′:3,4]pyrazolo[5,1-d][1,2,5]oxadiazepin-4-yl)methyl)carbamate], 7.00 to 9.00.
Take `CNC(=O)C1Cn2nc3c(c2C(=O)N(C)O1)CN(C(=O)Nc1ccc(F)c(C#N)c1F)CC3` (stereo not shown) [Compound 195, N10-(3-cyano-2,4-difluorophenyl)-N4,2-dimethyl-1-oxo-1,4,5,8,9,11-hexahydropyrido[4′,3′:3,4]pyrazolo[5,1-d][1,2,5]oxadiazepine-4,10(2H)-dicarboxamide]: the pEC50 under setting [1] was 7.00 to 9.00.
With `CCC(=O)NCC1Cn2nc3c(c2C(=O)N(C)O1)CN(C(=O)Nc1ccc(F)c(Cl)c1)CC3` (stereo not shown) [Compound 197, N-(3-chloro-4-fluorophenyl)-2-methyl-1-oxo-4-(propionamidomethyl)-1,4,5,8,9,11-hexahydropyrido[4′,3′:3,4]pyrazolo[5,1-d][1,2,5]oxadiazepine-10(2H)-carboxamide], the pEC50 under setting [1] is 7.00 to 9.00.
Same read-out and setting: the result for `CN1OC(CNC(=O)C2CC2)Cn2nc3c(c2C1=O)CN(C(=O)Nc1ccc(F)c(Cl)c1)CC3` (stereo not shown) [Compound 198, N-(3-chloro-4-fluorophenyl)-4-(cyclopropanecarboxamidomethyl)-2-methyl-1-oxo-1,4,5,8,9,11-hexahydropyrido[4′,3′:3,4]pyrazolo[5,1-d][1,2,5]oxadiazepine-10(2H)-carboxamide] reads 7.00 to 9.00.
Still for that read-out and setting: to `CN1OC(CNC(=O)CC(F)(F)F)Cn2nc3c(c2C1=O)CN(C(=O)Nc1ccc(F)c(Cl)c1)CC3` (stereo not shown) [Compound 199, N-(3-chloro-4-fluorophenyl)-2-methyl-1-oxo-4-((3,3,3-trifluoropropanamido)methyl)-1,4,5,8,9,11-hexahydropyrido[4′,3′:3,4]pyrazolo[5,1-d][1,2,5]oxadiazepine-10(2H)-carboxamide] belongs 7.00 to 9.00; to `CC(C)C(=O)NCC1Cn2nc3c(c2C(=O)N(C)O1)CN(C(=O)Nc1ccc(F)c(Cl)c1)CC3` (stereo not shown) [Compound 200, N-(3-chloro-4-fluorophenyl)-4-(isobutyramidomethyl)-2-methyl-1-oxo-1,4,5,8,9,11-hexahydropyrido[4′,3′:3,4]pyrazolo[5,1-d][1,2,5]oxadiazepine-10(2H)-carboxamide], 7.00 to 9.00; to `CN1OC(CNC(=O)C(C)(C)C)Cn2nc3c(c2C1=O)CN(C(=O)Nc1ccc(F)c(Cl)c1)CC3` (stereo not shown) [Compound 201, N-(3-chloro-4-fluorophenyl)-2-methyl-1-oxo-4-(pivalamidomethyl)-1,4,5,8,9,11-hexahydropyrido[4′,3′:3,4]pyrazolo[5,1-d][1,2,5]oxadiazepine-10(2H)-carboxamide], 7.00 to 9.00.
Still for that read-out and setting: the result for `CCOC(=O)NCC1Cn2nc3c(c2C(=O)N(C)O1)CN(C(=O)Nc1ccc(F)c(Cl)c1)CC3` (stereo not shown) [Compound 202, ethyl ((10-((3-chloro-4-fluorophenyl)carbamoyl)-2-methyl-1-oxo-1,2,4,5,8,9,10,11-octahydropyrido[4′,3′:3,4]pyrazolo[5,1-d][1,2,5]oxadiazepin-4-yl)methyl)carbamate] reads 7.00 to 9.00.
Take `CN1OC(CNC(=O)OC2CC2)Cn2nc3c(c2C1=O)CN(C(=O)Nc1ccc(F)c(Cl)c1)CC3` (stereo not shown) [Compound 203, cyclopropyl ((10-((3-chloro-4-fluorophenyl)carbamoyl)-2-methyl-1-oxo-1,2,4,5,8,9,10,11-octahydropyrido[4′,3′:3,4]pyrazolo[5,1-d][1,2,5]oxadiazepin-4-yl)methyl)carbamate]: the pEC50 under setting [1] is 7.00 to 9.00.
The same measure, in the same setting: to `CN(C)C(=O)NCC1Cn2nc3c(c2C(=O)N(C)O1)CN(C(=O)Nc1ccc(F)c(Cl)c1)CC3` (stereo not shown) [Compound 204, N-(3-chloro-4-fluorophenyl)-4-((3,3-dimethylureido)methyl)-2-methyl-1-oxo-1,4,5,8,9,11-hexahydropyrido[4′,3′:3,4]pyrazolo[5,1-d][1,2,5]oxadiazepine-10(2H)-carboxamide] belongs 7.00 to 9.00.
Same read-out and setting: the result for `CN1OC(CNC(=O)CC#N)Cn2nc3c(c2C1=O)CN(C(=O)Nc1ccc(F)c(Cl)c1)CC3` (stereo not shown) [Compound 205, N-(3-chloro-4-fluorophenyl)-4-((2-cyanoacetamido)methyl)-2-methyl-1-oxo-1,4,5,8,9,11-hexahydropyrido[4′,3′:3,4]pyrazolo[5,1-d][1,2,5]oxadiazepine-10(2H)-carboxamide] reads 7.00 to 9.00.
On to `CN1OC(CNC(=O)CO)Cn2nc3c(c2C1=O)CN(C(=O)Nc1ccc(F)c(Cl)c1)CC3` (stereo not shown) [Compound 206, N-(3-chloro-4-fluorophenyl)-4-((2-hydroxyacetamido)methyl)-2-methyl-1-oxo-1,4,5,8,9,11-hexahydropyrido[4′,3′:3,4]pyrazolo[5,1-d][1,2,5]oxadiazepine-10(2H)-carboxamide], for which, under setting [1], the pEC50 is 7.00 to 9.00.
The same measure, in the same setting: to `CN1OC(CNC(=O)OCC(F)(F)F)Cn2nc3c(c2C1=O)CN(C(=O)Nc1ccc(F)c(Cl)c1)CC3` (stereo not shown) [Compound 207, 2,2,2-trifluoroethyl ((10-((3-chloro-4-fluorophenyl)carbamoyl)-2-methyl-1-oxo-1,2,4,5,8,9,10,11-octahydropyrido[4′,3′:3,4]pyrazolo[5,1-d][1,2,5]oxadiazepin-4-yl)methyl)carbamate] belongs 7.00 to 9.00; to `CCS(=O)(=O)NCC1Cn2nc3c(c2C(=O)N(C)O1)CN(C(=O)Nc1ccc(F)c(Cl)c1)CC3` (stereo not shown) [Compound 208, N-(3-chloro-4-fluorophenyl)-4-(ethylsulfonamidomethyl)-2-methyl-1-oxo-1,4,5,8,9,11-hexahydropyrido[4′,3′:3,4]pyrazolo[5,1-d][1,2,5]oxadiazepine-10(2H)-carboxamide], 7.00 to 9.00; to `CN1OC(CO)Cn2nc3c(c2C1=O)CC(C(=O)Nc1ccc(F)c(Cl)c1)CC3` (stereo not shown) [Compound 209, N-(3-chloro-4-fluoro-phenyl)-4-(hydroxymethyl)-2-methyl-1-oxo-4,5,8,9,10,11-hexahydro-[1,2,5]oxadiazepino[5,4-b]indazole-10-carboxamide], 6.00 to 6.30.
The same measure, in the same setting: the result for `C[C@@H]1Cc2nn3c(c2CN1C(=O)Nc1ccc(F)c(C#N)c1)C(=O)N(C)O[C@H](COCC(F)(F)F)C3` [Compound 210, (4S,9R)—N-(3-cyano-4-fluorophenyl)-2,9-dimethyl-1-oxo-4-((2,2,2-trifluoroethoxy)methyl)-1,4,5,8,9,11-hexahydropyrido[4′,3′:3,4]pyrazolo[5,1-d][1,2,5]oxadiazepine-10(2H)-carboxamide] reads 7.00 to 9.00; that for `C[C@@H]1Cc2nn3c(c2CN1C(=O)Nc1ccc(F)c(C#N)c1)C(=O)N(C)OC(C)(C)C3` [Compound 213, (R)—N-(3-cyano-4-fluorophenyl)-2,4,4,9-tetramethyl-1-oxo-1,4,5,8,9,11-hexahydropyrido[4′,3′:3,4]pyrazolo[5,1-d][1,2,5]oxadiazepine-10(2H)-carboxamide], 7.00 to 9.00.
On the same count and under the same terms, to `C[C@@H]1Cc2nn3c(c2CN1C(=O)Nc1ccc(F)c(C(F)(F)F)c1)C(=O)N(C)OC(C)(C)C3` [Compound 214, (5R)—N-[4-Fluoro-3-(trifluoromethyl)phenyl]-5,11,11,13-tetramethyl-14-oxo-12-oxa-4,8,9,13-tetrazatricyclo[7.5.0.0^2.7]tetradeca-1,7-diene-4-carboxamide] belongs 7.00 to 9.00; to `CN1NCCn2nc3c(c2C1=O)CN(C(=O)Nc1ccc(F)c(Cl)c1)CC3` [Compound 216, N-(3-Chloro-4-fluoro-phenyl)-2-methyl-1-oxo-3,4,5,8,9,11-hexahydropyrido[2,3]pyrazolo[2,4-c][1,2,5]triazepine-10-carboxamide], 6.30 to 7.00; to `CN1CCn2nc3c(c2C(=O)N1C)CN(C(=O)Nc1ccc(F)c(Cl)c1)CC3` [Compound 217, N-(3-Chloro-4-fluorophenyl)-2,3-dimethyl-1-oxo-1,2,3,4,5,8,9,11-octahydro-10H-pyrido[4′,3′:3,4]pyrazolo[5,1-d][1,2,5]triazepine-10-carboxamide], 7.00 to 9.00.
For the compound `C=CCN1CCn2nc3c(c2C(=O)N1C)CN(C(=O)Nc1ccc(F)c(C#N)c1)[C@H](C)C3` [Compound 218, (R)-3-allyl-N-(3-cyano-4-fluorophenyl)-2,9-dimethyl-1-oxo-1,2,3,4,5,8,9,11-octahydro-10H-pyrido[4′,3′:3,4]pyrazolo[5,1-d][1,2,5]triazepine-10-carboxamide], under setting [1], the pEC50 is 7.00 to 9.00.
